Experimental data taken from patent US20150065456A1, “AGENT FOR TREATMENT AND PREVENTION OF CANCER” (Daiichi Sankyo Company, Limited, priority 2013, published 2015).
Where two headings read alike, the source gives them in different places.

Legend:
[1] = test system: subjects with symptomatic venous thromboembolism (VTE); assay: Hokusai VTE phase 3 clinical study: investigator-reported malignancies clinically evident post-randomization; format: in vivo, human; conditions: for All Subjects with a Malignancy Event, HR: edoxaban vs warfarin, Cox proportional hazards model
Experimental: The study was a randomized, double-blind, clinical study, in which subjects with symptomatic venous thromboembolism (VTE), which included PE, with or without deep venous thrombosis (DVT), or DVT only, were treated with either edoxaban or warfarin, a Vitamin K antagonist, which is an indirect inhibitor of coagulation. […] The subjects participating in the study were adult male and female patients presenting with acute, symptomatic DVT involving popliteal, femoral, or ileac veins, or PE requiring anti-thrombotic therapy. Patients with various types of cancer were among the subjects who were treated in this study, so long as long term treatment with heparin was not anticipated as a treatment regimen for such patients. This clinical study is named Hokusai-VTE and is the largest single phase 3 clinical study in the treatment and prevention of recurrence of VTE using an FXa inhibitor such as edoxaban. More than 8,250 patients were enrolled in the study from more than 400 clinical sites across 38 countries worldwide. The Hokusai-VTE clinical study was designed to reflect clinical practice, using a standard heparin lead-in and providing a flexible treatment duration of three, six or twelve months. This study design allowed the evaluation of patients with a broad range of risks, including patients with moderate or severe conditions of PE and DVT. […] (See, Example 1, infra).
The study (Hokusai VTE Clinical Study) constituted a phase 3, randomized, double-blind, double-dummy, parallel-group, multi-center, multi-national study for the evaluation of efficacy and safety of (LMW) heparin/edoxaban versus (LMW) heparin/warfarin in subjects with symptomatic deep-vein thrombosis and/or pulmonary embolism. The study indication related to the reduction of the risk of symptomatic recurrent venous thromboembolic complications in patients with acute symptomatic deep vein thrombosis (DVT) and/or pulmonary embolism (PE). […] Accordingly, the nature of the study was the use of edoxaban as direct inhibitor of Factor Xa in the treatment of VTE.
Following stratification and treatment allocation as described above, all patients were randomized to either a standard of care (SOC) treatment regimen, i.e., heparin+warfarin, until the international normalized ratio (INR) was between 2-3, followed by warfarin alone; or an edoxaban treatment regimen, i.e., heparin for 5 days followed by edoxaban (as the free base) at a dose of 60-mg QD (or 30-mg QD, in the low exposure group). This study aimed to treat all patients for the entire 12 month period following randomization. Ultimately, the evolving nature of the patient's clinical status and changes in the risk/benefit over time determined the length of treatment for a given patient. Irrespective of actual treatment duration, all patients were followed for the entire 12 months after randomization.
Edoxaban was administered in 30 and 60 mg dose-strengths in tablet form. Warfarin was administered in 1, 2.5 and 5 mg dose-strengths. Matching placebos were used for each of the test drugs. Edoxaban and warfarin were administered orally (PO). Enoxaparin was administered by subcutaneous (SC) injection.
The study was an event-driven, Phase 3, multi-national, multi-center, randomized, double-blind, matching placebo, parallel-group non-inferiority study for efficacy. The total study period after randomization was 12 months in duration. Ideally, all subjects remained on study treatment throughout this period. However, mitigating factors related to the subject's clinical status could influence the total duration of treatment a given subject actually received (See, Treatment Arms, below). Nevertheless, all subjects were administered a minimum of three months' treatment consistent with current ACCP Guidelines.

[2] = cited from earlier work
[3] = monkeys; cited from earlier work
[4] = rats; cited from earlier work
[5] = Overall Study Period (up to 12 months)

Row | SMILES | All Subjects with a Malignancy Event, (%) ([1]; On-Treatment Study Period) | Leukemia, Lymphoma, and Other Blood Malignancies, (%) ([1]; On-Treatment Study Period) | Malignancy diagnosed as a result of work-up for anemia or bleeding: No, (%) ([1]; On-Treatment Study Period) | Malignancy diagnosed as a result of work-up for anemia or bleeding: Yes, (%) ([1]; On-Treatment Study Period) | Solid Tumor, (%) ([1]; On-Treatment Study Period) | All Subjects with a Malignancy Event, (%) [1, 5] | Leukemia, Lymphoma, and Other Blood Malignancies, (%) [1, 5] | Malignancy diagnosed as a result of work-up for anemia or bleeding: No, (%) [1, 5] | Malignancy diagnosed as a result of work-up for anemia or bleeding: Yes, (%) [1, 5] | Solid Tumor, (%) [1, 5] | All Subjects with a Malignancy Event, (%) ([1]; Treatment+30 Days Study Period) | Leukemia, Lymphoma, and Other Blood Malignancies, (%) ([1]; Treatment+30 Days Study Period) | Malignancy diagnosed as a result of work-up for anemia or bleeding: No, (%) ([1]; Treatment+30 Days Study Period) | Malignancy diagnosed as a result of work-up for anemia or bleeding: Yes, (%) ([1]; Treatment+30 Days Study Period) | Solid Tumor, (%) ([1]; Treatment+30 Days Study Period) | further results
1 | CC(=O)CC(c1ccccc1)c1c(O)c2ccccc2oc1=O (stereo not drawn) [Warfarin, warfarin, reference compound] | 2.2% | 0.1% | 1.9% | 0.2% | 2.0% | 3.3% | 0.2% | 2.8% | 0.5% | 3.1% | 2.9% | 0.2% | 2.4% | 0.5% | 2.6% | 
2 | CN1CCc2nc(C(=O)N[C@@H]3C[C@@H](C(=O)N(C)C)CC[C@@H]3NC(=O)C(=O)Nc3ccc(Cl)cn3)sc2C1 [Edoxaban] | (1.6) % | (<0.1) % | (1.4) % | (0.2) % | (1.5) % | (2.8) % | (0.2) % | (2.2) % | (0.6) % | (2.7) % | (2.4) % | (0.1) % | (1.8) % | (0.6) % | (2.3) % | safety and tolerability ([2]; doses of up to 90-mg per day): generally safe and well tolerated; oral bioavailability ([2]; human subjects): orally bioavailable; oral bioavailability [3]: orally bioavailable; Kaplan-Meier cumulative incidence (%) of new or recurrent malignancies versus warfarin-treated subjects ([1]; FIG. 1, treatment +30 days study period, 390 days from initial study drug administration): significant decrease; Kaplan-Meier cumulative incidence (%) of new or recurrent malignancies versus warfarin-treated subjects ([1]; FIG. 2, overall study period, about 360 days from initial study drug administration): significant decrease; All Subjects with a Malignancy Event, HR ([1]; On-Treatment Study Period): 0.73; All Subjects with a Malignancy Event, HR ([1]; Overall Study Period): 0.85; All Subjects with a Malignancy Event, HR ([1]; Treatment+30 Days Study Period): 0.84; oral bioavailability [4]: orally bioavailable
